The supplement of paper PMC10307832

Experiments:
Test in all cases: relative viability (nuclei count vs DMSO), 5 days (fraction); higher = more cells survive
Ruxolitinib + AZD7762 = compound: N#CC[C@H](C1CCCC1)n1cc(-c2ncnc3[nH]ccc23)cn1 [Ruxolitinib] + NC(=O)Nc1cc(-c2cccc(F)c2)sc1C(=O)N[C@H]1CCCNC1 [AZD7762] (partner 0.2 µM)
Procedure, shortened: (§1)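 Relative viability is defined as nuclei in treated wells over nuclei in vehicle wells. Duplicate plates were run and medians reported. Lung cancer cell lines in 1536-well plates were dosed by pin tool one day after seeding, with one drug or with a fixed anchor-drug dose plus five library-drug doses (not always all listed) in √10 steps, and nuclei were counted after 5 days.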

Vismodegib + Navitoclax = compound: CS(=O)(=O)c1ccc(C(=O)Nc2ccc(Cl)c(-c3ccccn3)c2)c(Cl)c1 [Vismodegib] + CC1(C)CCC(c2ccc(Cl)cc2)=C(CN2CCN(c3ccc(C(=O)NS(=O)(=O)c4ccc(N[C@H](CCN5CCOCC5)CSc5ccccc5)c(S(=O)(=O)C(F)(F)F)c4)cc3)CC2)C1 [Navitoclax] (partner 0.5 µM)
Procedure, shortened: as §1

Ruxolitinib + Vorinostat = compound: N#CC[C@H](C1CCCC1)n1cc(-c2ncnc3[nH]ccc23)cn1 [Ruxolitinib] + O=C(CCCCCCC(=O)Nc1ccccc1)NO [Vorinostat] (partner 1 µM)
Procedure, shortened: as §1

Ruxolitinib + Decitabine = compound: N#CC[C@H](C1CCCC1)n1cc(-c2ncnc3[nH]ccc23)cn1 [Ruxolitinib] + Nc1ncn([C@H]2C[C@H](O)[C@@H](CO)O2)c(=O)n1 [Decitabine] (partner 2 µM)
Procedure, shortened: as §1

## NCI-H1651
Ruxolitinib + AZD7762; first compound 0.08 µM
  relative viability: 0.512
Ruxolitinib + AZD7762; first compound 0.253 µM
  relative viability: 0.449
Ruxolitinib + AZD7762; first compound 0.8 µM
  relative viability: 0.533
Ruxolitinib + AZD7762; first compound 2.53 µM
  relative viability: 0.545
Ruxolitinib + AZD7762; first compound 8 µM
  relative viability: 0.689
Vismodegib + Navitoclax; first compound 0.08 µM
  relative viability: 0.954
Vismodegib + Navitoclax; first compound 0.253 µM
  relative viability: 0.956
Vismodegib + Navitoclax; first compound 0.8 µM
  relative viability: 0.984
Vismodegib + Navitoclax; first compound 2.53 µM
  relative viability: 0.885
Vismodegib + Navitoclax; first compound 8 µM
  relative viability: 1.11
Ruxolitinib + Vorinostat; first compound 0.08 µM
  relative viability: 0.601
Ruxolitinib + Vorinostat; first compound 0.253 µM
  relative viability: 0.52
Ruxolitinib + Vorinostat; first compound 0.8 µM
  relative viability: 0.523
Ruxolitinib + Vorinostat; first compound 2.53 µM
  relative viability: 0.472
Ruxolitinib + Vorinostat; first compound 8 µM
  relative viability: 0.573
Ruxolitinib + Decitabine; first compound 0.08 µM
  relative viability: 0.514
Ruxolitinib + Decitabine; first compound 0.253 µM
  relative viability: 0.604
Ruxolitinib + Decitabine; first compound 0.8 µM
  relative viability: 0.624
Ruxolitinib + Decitabine; first compound 2.53 µM
  relative viability: 0.438
Ruxolitinib + Decitabine; first compound 8 µM
  relative viability: 0.655

## NCI-H1734
Ruxolitinib + AZD7762; first compound 0.08 µM
  relative viability: 0.638
Ruxolitinib + AZD7762; first compound 0.253 µM
  relative viability: 0.629
Ruxolitinib + AZD7762; first compound 0.8 µM
  relative viability: 0.662
Ruxolitinib + AZD7762; first compound 2.53 µM
  relative viability: 0.54
Ruxolitinib + AZD7762; first compound 8 µM
  relative viability: 0.602
Vismodegib + Navitoclax; first compound 0.08 µM
  relative viability: 0.878
Vismodegib + Navitoclax; first compound 0.253 µM
  relative viability: 0.835
Vismodegib + Navitoclax; first compound 0.8 µM
  relative viability: 0.846
Vismodegib + Navitoclax; first compound 2.53 µM
  relative viability: 0.77
Vismodegib + Navitoclax; first compound 8 µM
  relative viability: 0.897
Ruxolitinib + Vorinostat; first compound 0.08 µM
  relative viability: 0.886
Ruxolitinib + Vorinostat; first compound 0.253 µM
  relative viability: 0.806
Ruxolitinib + Vorinostat; first compound 0.8 µM
  relative viability: 0.902
Ruxolitinib + Vorinostat; first compound 2.53 µM
  relative viability: 0.797
Ruxolitinib + Vorinostat; first compound 8 µM
  relative viability: 0.863
Ruxolitinib + Decitabine; first compound 0.08 µM
  relative viability: 0.512
Ruxolitinib + Decitabine; first compound 0.253 µM
  relative viability: 0.485
Ruxolitinib + Decitabine; first compound 0.8 µM
  relative viability: 0.613
Ruxolitinib + Decitabine; first compound 2.53 µM
  relative viability: 0.423
Ruxolitinib + Decitabine; first compound 8 µM
  relative viability: 0.494

## NCI-H1993
Ruxolitinib + AZD7762; first compound 0.08 µM
  relative viability: 0.828
Ruxolitinib + AZD7762; first compound 0.253 µM
  relative viability: 0.646
Ruxolitinib + AZD7762; first compound 0.8 µM
  relative viability: 1.05
Ruxolitinib + AZD7762; first compound 2.53 µM
  relative viability: 0.794
Ruxolitinib + AZD7762; first compound 8 µM
  relative viability: 0.985
Vismodegib + Navitoclax; first compound 0.08 µM
  relative viability: 1.1
Vismodegib + Navitoclax; first compound 0.253 µM
  relative viability: 0.913
Vismodegib + Navitoclax; first compound 0.8 µM
  relative viability: 0.884
Vismodegib + Navitoclax; first compound 2.53 µM
  relative viability: 0.759
Vismodegib + Navitoclax; first compound 8 µM
  relative viability: 0.705
Ruxolitinib + Vorinostat; first compound 0.08 µM
  relative viability: 0.81
Ruxolitinib + Vorinostat; first compound 0.253 µM
  relative viability: 0.754
Ruxolitinib + Vorinostat; first compound 0.8 µM
  relative viability: 0.102
Ruxolitinib + Vorinostat; first compound 2.53 µM
  relative viability: 0.822
Ruxolitinib + Vorinostat; first compound 8 µM
  relative viability: 0.75
Ruxolitinib + Decitabine; first compound 0.08 µM
  relative viability: 0.582
Ruxolitinib + Decitabine; first compound 0.253 µM
  relative viability: 0.53
Ruxolitinib + Decitabine; first compound 0.8 µM
  relative viability: 0.595
Ruxolitinib + Decitabine; first compound 2.53 µM
  relative viability: 0.534
Ruxolitinib + Decitabine; first compound 8 µM
  relative viability: 0.59

## NCI-H1755
Ruxolitinib + AZD7762; first compound 0.08 µM
  relative viability: 0.497
Ruxolitinib + AZD7762; first compound 0.253 µM
  relative viability: 0.465
Ruxolitinib + AZD7762; first compound 0.8 µM
  relative viability: 0.573
Ruxolitinib + AZD7762; first compound 2.53 µM
  relative viability: 0.471
Ruxolitinib + AZD7762; first compound 8 µM
  relative viability: 0.343
Vismodegib + Navitoclax; first compound 0.08 µM
  relative viability: 0.961
Vismodegib + Navitoclax; first compound 0.253 µM
  relative viability: 0.957
Vismodegib + Navitoclax; first compound 0.8 µM
  relative viability: 1.04
Vismodegib + Navitoclax; first compound 2.53 µM
  relative viability: 0.934
Vismodegib + Navitoclax; first compound 8 µM
  relative viability: 0.985
Ruxolitinib + Vorinostat; first compound 0.08 µM
  relative viability: 0.749
Ruxolitinib + Vorinostat; first compound 0.253 µM
  relative viability: 0.713
Ruxolitinib + Vorinostat; first compound 0.8 µM
  relative viability: 0.766
Ruxolitinib + Vorinostat; first compound 2.53 µM
  relative viability: 0.712
Ruxolitinib + Vorinostat; first compound 8 µM
  relative viability: 0.61
Ruxolitinib + Decitabine; first compound 0.08 µM
  relative viability: 0.742
Ruxolitinib + Decitabine; first compound 0.253 µM
  relative viability: 0.686
Ruxolitinib + Decitabine; first compound 0.8 µM
  relative viability: 0.755
Ruxolitinib + Decitabine; first compound 2.53 µM
  relative viability: 0.694
Ruxolitinib + Decitabine; first compound 8 µM
  relative viability: 0.667

## NCI-H1793
Ruxolitinib + AZD7762; first compound 0.08 µM
  relative viability: 0.759
Ruxolitinib + AZD7762; first compound 0.253 µM
  relative viability: 0.502
Ruxolitinib + AZD7762; first compound 0.8 µM
  relative viability: 0.595
Ruxolitinib + AZD7762; first compound 2.53 µM
  relative viability: 0.437
Ruxolitinib + AZD7762; first compound 8 µM
  relative viability: 0.391
Vismodegib + Navitoclax; first compound 0.253 µM
  relative viability: 0.481
Vismodegib + Navitoclax; first compound 0.8 µM
  relative viability: 0.504
Vismodegib + Navitoclax; first compound 2.53 µM
  relative viability: 0.522
Vismodegib + Navitoclax; first compound 8 µM
  relative viability: 0.373
Ruxolitinib + Vorinostat; first compound 0.08 µM
  relative viability: 0.832
Ruxolitinib + Vorinostat; first compound 0.253 µM
  relative viability: 0.87
Ruxolitinib + Vorinostat; first compound 0.8 µM
  relative viability: 0.823
Ruxolitinib + Vorinostat; first compound 2.53 µM
  relative viability: 0.877
Ruxolitinib + Vorinostat; first compound 8 µM
  relative viability: 0.872
Ruxolitinib + Decitabine; first compound 0.08 µM
  relative viability: 0.436
Ruxolitinib + Decitabine; first compound 0.253 µM
  relative viability: 0.502
Ruxolitinib + Decitabine; first compound 0.8 µM
  relative viability: 0.488
Ruxolitinib + Decitabine; first compound 2.53 µM
  relative viability: 0.392
Ruxolitinib + Decitabine; first compound 8 µM
  relative viability: 0.413

## HCC-78
Ruxolitinib + AZD7762; first compound 0.08 µM
  relative viability: 0.695
Ruxolitinib + AZD7762; first compound 0.253 µM
  relative viability: 0.484
Ruxolitinib + AZD7762; first compound 0.8 µM
  relative viability: 0.481
Ruxolitinib + AZD7762; first compound 2.53 µM
  relative viability: 0.631
Ruxolitinib + AZD7762; first compound 8 µM
  relative viability: 0.628
Vismodegib + Navitoclax; first compound 0.08 µM
  relative viability: 0.703
Vismodegib + Navitoclax; first compound 0.253 µM
  relative viability: 0.759
Vismodegib + Navitoclax; first compound 0.8 µM
  relative viability: 0.638
Vismodegib + Navitoclax; first compound 2.53 µM
  relative viability: 0.707
Vismodegib + Navitoclax; first compound 8 µM
  relative viability: 0.78
Ruxolitinib + Vorinostat; first compound 0.08 µM
  relative viability: 0.412
Ruxolitinib + Vorinostat; first compound 0.253 µM
  relative viability: 0.455
Ruxolitinib + Vorinostat; first compound 0.8 µM
  relative viability: 0.429
Ruxolitinib + Vorinostat; first compound 2.53 µM
  relative viability: 0.439
Ruxolitinib + Vorinostat; first compound 8 µM
  relative viability: 0.395
Ruxolitinib + Decitabine; first compound 0.08 µM
  relative viability: 0.598
Ruxolitinib + Decitabine; first compound 0.253 µM
  relative viability: 0.607
Ruxolitinib + Decitabine; first compound 0.8 µM
  relative viability: 0.677
Ruxolitinib + Decitabine; first compound 2.53 µM
  relative viability: 0.527
Ruxolitinib + Decitabine; first compound 8 µM
  relative viability: 0.661

## ChaGo-K-1
Ruxolitinib + AZD7762; first compound 0.08 µM
  relative viability: 0.909
Ruxolitinib + AZD7762; first compound 0.253 µM
  relative viability: 0.853
Ruxolitinib + AZD7762; first compound 0.8 µM
  relative viability: 0.869
Ruxolitinib + AZD7762; first compound 2.53 µM
  relative viability: 0.834
Ruxolitinib + AZD7762; first compound 8 µM
  relative viability: 0.703
Vismodegib + Navitoclax; first compound 0.08 µM
  relative viability: 0.994
Vismodegib + Navitoclax; first compound 0.253 µM
  relative viability: 1.14
Vismodegib + Navitoclax; first compound 0.8 µM
  relative viability: 0.956
Vismodegib + Navitoclax; first compound 2.53 µM
  relative viability: 0.977
Vismodegib + Navitoclax; first compound 8 µM
  relative viability: 0.986
Ruxolitinib + Vorinostat; first compound 0.08 µM
  relative viability: 0.771
Ruxolitinib + Vorinostat; first compound 0.253 µM
  relative viability: 0.764
Ruxolitinib + Vorinostat; first compound 0.8 µM
  relative viability: 0.707
Ruxolitinib + Vorinostat; first compound 2.53 µM
  relative viability: 0.62
Ruxolitinib + Vorinostat; first compound 8 µM
  relative viability: 0.637
Ruxolitinib + Decitabine; first compound 0.08 µM
  relative viability: 0.515
Ruxolitinib + Decitabine; first compound 0.253 µM
  relative viability: 0.529
Ruxolitinib + Decitabine; first compound 0.8 µM
  relative viability: 0.52
Ruxolitinib + Decitabine; first compound 2.53 µM
  relative viability: 0.447
Ruxolitinib + Decitabine; first compound 8 µM
  relative viability: 0.478
